Patent US20250177354A1, “THERAPEUTIC COMBINATIONS, COMPOSITIONS, AND METHODS FOR DESIGNING AND PRODUCING EN[…]” (Mindstate Design Labs, Inc., priority 2022, published 2025)
Entries after “also recorded” stand apart in the source; their conditions may differ.

Legend:
individual = experiment: Self-administration of combinations and single-compound controls, subjective reports recorded by the individual; assay type: in vivo, human
Description: In several examples of such administration, the combinations as follows were self-administered, with the subjective reports recorded by the individual during and/or following such administration, as below.
The following example was performed for purposes of and is presented as a control.
In an example, the combination as set forth below was self-administered, with the report as follows.
The working example below was performed for purposes of and is presented as a control.
The working examples below were also performed for purposes of and are presented as controls, using an escalating dose of a single primer alone, applicable to this and other Examples.

I1 Imidazoline Sites = settings: cited from earlier work; for Selectivity Ratio: I1 relative to α2 (α2 value / I1 value)
α2-adrenergic receptor = settings: cited from earlier work
I1 = settings: cited from earlier work
[1] = cited from earlier work
subjects [2] = settings: subjects administered MDMA; cited from earlier work
subjects [3] = settings: cited from earlier work
[4] = control: 4.0 mg 5-MeO-MiPT alone
[5] = control: 8.0 mg 5-MeO-MiPT alone
[6] = control: 10.0 mg 5-MeO-MiPT alone

COc1ccc2[nH]cc(CCN(C)C(C)C)c2c1 [Example 5-MeO-MiPT, N-isopropyl-5-methoxy-N-methyltryptamine]
physical discomfort (self-report) (individual; [4]): my brain was so heavy and tired | subjective effects (self-report) (individual; [4]): My emotion is quite neutral, not much different from the normal state | subjective effects (self-report) (individual; control: 6.0 mg 5-MeO-MiPT alone): generally emotionally neutral | physical discomfort (self-report) (individual; [5]): my body was uncoordinated, and I trembled a lot | subjective effects (self-report) (individual; [5]): There was no emergence of a stable mental state; also recorded: There was not much feeling | physical discomfort (self-report) (individual; [6]): My stomach was so upset that I had to vomit | subjective effects (self-report) (individual; [6]): void of emotion and mental activities

CC(Oc1c(Cl)cccc1Cl)C1=NCCN1 (centres unmarked) [Lofexidine]
Selectivity Ratio (I1 Imidazoline Sites): 3.63

C1COC(NC(C2CC2)C2CC2)=N1 [Rilmenidine, N-(dicyclopropylmethyl)-4,5-dihydro-1,3-oxazol-2-amine]
Selectivity Ratio (I1 Imidazoline Sites): 29.51 | selectivity for I1 relative to α2 receptors (I1 Imidazoline Sites; I1 relative to α2 receptors): about 30 fold | subjective effects (self-report) (individual; control: 1.0 mg Rilmenidine alone, 9:00 pm): relaxing, my chest less strained; also recorded: the effect was subtle

CC1CNC(Nc2c(Cl)cccc2Cl)=N1 (centres unmarked) [LNP630, (2,6-dichloro-phenyl)-(4-methyl-4,5-dihydro-1H-imidazol-2-yl)-amine]
affinity or activity for the α2-adrenergic receptor (α2-adrenergic receptor): no detectable affinity or activity

CC1CCC(Nc2cc(N=[N+]=[N-])c(I)cc2Cl)=N1 (centres unmarked) [LNP906, 2-(5-azido-2-chloro-4-iodo-phenyl-amino)-5-methyl-pyrroline]
affinity or activity for the α2-adrenergic receptor (α2-adrenergic receptor): no detectable affinity or activity

CC1CC(NC(C2CC2)C2CC2)=NC1C (centres unmarked) [LNP509, dicyclopropylmethyl-(4,5-dimethyl-4,5-dihydro-3H-pyrrol-2-yl)-amine]
affinity or activity for the α2-adrenergic receptor (α2-adrenergic receptor): no detectable affinity or activity

CC1CCC(Nc2ccc(I)cc2Cl)=N1 (centres unmarked) [LNP911, 2-(2-chloro-4-iodo-phenylamino)-5-methyl-pyrroline]
affinity or activity for the α2-adrenergic receptor (α2-adrenergic receptor): no detectable affinity or activity

Cc1c(Cl)cccc1NC1=NCC(C)C1 (centres unmarked) [LNP599]
affinity or activity for the α2-adrenergic receptor (α2-adrenergic receptor): no detectable affinity or activity | affinity for I1 (I1): nanomolar affinity

CNC(C)Cc1ccc2c(c1)OCO2 (racemic) [MDMA, (RS)-1-(1,3-Benzo-dioxol-5-yl)-N-methylpropan-2-amine]
effect on a stutter (case, Shulgin & Shulgin, 1991) ([1]; graduate student): dramatic improvements in a stutter | efficacy in autistic social impairment (systematic review, Chaliha, 2021) ([1]; in vivo): efficacious as a pharmacological treatment | mental state decoding (mind reading) of social cues (subjects [2]): enhanced mental state decoding of positive stimuli, such as friendliness, and impaired the accuracy of mind reading for negative stimuli | subject-reported sociability (subjects [3]; following administration of MDMA): increases in sociability | brain imaging responses to facial expressions (subjects [3]; subjects administered MDMA): attenuated responses to angry facial expressions and enhanced responses to happy expressions

COc1nc(C)nc(Cl)c1NC1=NCCN1 [Moxonidine, 4-Chloro-N-(4,5-dihydro-1H-imidazol-2-yl)-6-methoxy-2-methylpyrimidin-5-amine]
subjective effects (self-report) (individual; control: 0.2 mg Moxonidine alone, 12:30 pm): more focused, probably more centered, less distracted by thinking; also recorded: All very subtle but detectable
